Laboratory results reported in patent publication US9745597B2, “Compositions and methods for controlling fungal and bacterial diseases in plants” (priority 2014, dated 2017).
Structures can show the parent of a compound that is named as a salt.

What was measured:
[1] = test system: Uromyces appendiculatus; experiment: In vivo preventive test on Uromyces (beans) (Example 13); settings: rate 0.05%; 10 days after inoculation
[2] = test system: Phakopsora pachyrhizi; experiment: In vivo preventive test on Phakopsora (soybeans) (Example 12); settings: rate 0.05%; 7 days after inoculation
[3] = test system: Alternaria solani; experiment: In vivo preventive test on Alternaria (tomatoes) (Example 11); settings: rate 0.05%; 3 days after inoculation
[4] = test system: Venturia inaequalis; experiment: In vivo preventive test on Venturia (apples), equilibrated mixtures (Example 17); settings: 10 days after inoculation
[5] = test system: Alternaria solani; experiment: In vivo preventive test on Alternaria (tomatoes), equilibrated mixtures (Example 18); settings: 3 days after inoculation
[6] = test system: Botrytis cinerea; experiment: In vivo preventive test on Botrytis (beans) (Example 19); settings: lesion size 3 days after inoculation
[7] = test system: Erwinia amylovora; experiment: In vivo control of Erwinia amylovora on apple blossoms (Example 30); settings: concentration 0.025 % applied to blossoms; after 6-7 days
[8] = test system: Phytophthora infestans; format: in vivo; settings: for fungicidal activity against Tomato Late Blight: 0.25, 0.50 and 1.00 weight %, FIG. 4; for Percent Control of Tomato Late Blight: 1.0 weight % in 50% ethanol
[9] = test system: Botrytis cinerea; experiment: In vivo preventive test on Botrytis (beans) (Example 14); settings: rate 0.2%; lesion size 3 days after inoculation
[10] = test system: Sphaerotheca fuliginea; experiment: In vivo preventive test on Sphaerotheca (cucumbers), equilibrated mixtures (Example 16); settings: rate 0.015%; 7 days after inoculation
[11] = test system: Venturia inaequalis; experiment: In vivo preventive test on Venturia (apples) (Example 10); settings: rate 0.05%; 10 days after inoculation
[12] = test system: Sphaerotheca fuliginea; experiment: In vivo preventive test on Sphaerotheca (cucumbers) (Example 9); settings: rate 0.05%; 7 days after inoculation
Protocol: […] (Bacillus subtilis QST713 fermentation product) and the adjuvants […]-77 (polyalkyleneoxide modified heptamethyltrisiloxane), […]® (synthetic latex), NIMBUS® (paraffin mineral oil), […] (rapeseed oil methyl ester; castor oil ethoxylated) or MERO® (rapeseed oil methyl ester) were diluted in water to the desired concentrations and applied separately and in combination to young cucumber plants. After the spray coating had dried on, the plants were inoculated with an aqueous spore suspension of Sphaerotheca fuliginea. […] (Bacillus subtilis QST713 fermentation product) in combination with […]-77 (polyalkyleneoxide modified heptamethyltrisiloxane), […]® (synthetic latex), NIMBUS® (paraffin mineral oil), […] (rapeseed oil methyl ester; castor oil ethoxylated) or MERO® (rapeseed oil methyl ester) is greater than the calculated activity, i.e., a synergistic effect is present.

[13] = test system: Botrytis cinerea; format: in vivo; settings: rates between 0.0625 and 1.0 weight %; FIG. 2B
[14] = test system: Phytophthora infestans; format: in vivo; settings: rates between 0.0625 and 2.0 weight %; FIG. 2A, FIG. 3

CCCCC(CC)COC(=O)CC(C(=O)OCC(CC)CCCC)S(=O)(=O)[O-].[Na+] (stereo not drawn) [GEROPON ® DOS-PG]
Efficacy in % Found [1]: 0% | Efficacy in % Found [2]: 0% | Efficacy in % Found [3]: 35% | Efficacy in % Found ([4]; rate 0.03%): 38% | Efficacy in % Found ([4]; rate 0.06%): 15% | Efficacy in % Found ([4]; rate 0.12%): 28%

CCCCCCCCCCCCOS(=O)(=O)[O-].[Na+] [LOXANOL ® K12P, sodium dodecyl sulfate]
Efficacy in % Found ([5]; rate 0.015%): 8% | Efficacy in % Found ([5]; rate 0.03%): 0% | Efficacy in % Found ([5]; rate 0.06%): 23% | Efficacy in % Found ([5]; rate 0.12%): 30% | Efficacy in % Found ([4]; rate 0.03%): 11% | Efficacy in % Found ([4]; rate 0.06%): 41% | Efficacy in % Found ([4]; rate 0.12%): 73% | Efficacy in % Found ([6]; rate 0.12%): 0%

[H]/N=C(/N)N[C@H]1[C@H](O)[C@@H](O)[C@H](O[C@@H]2O[C@@H](C)[C@](O)(C=O)[C@H]2O[C@@H]2O[C@@H](CO)[C@H](O)[C@@H](O)[C@@H]2NC)[C@@H](N/C(N)=N\[H])[C@@H]1O [Streptomycin sulfate]
Efficacy in % [7]: 89%

CCCCCCCCCCO[C@@H]1O[C@H](CO)[C@@H](O)[C@H](O)[C@H]1O [n-decyl-B-D-glucoside]
fungicidal activity against Tomato Late Blight [8]: fungicidal activity was observed | Percent Control of Tomato Late Blight [8]: 97%

CCCCCCCCCCCCO[C@@H]1O[C@H](CO)[C@@H](O)[C@H](O)[C@H]1O [n-dodecyl-B-D-glucoside]
fungicidal activity against Tomato Late Blight [8]: fungicidal activity was observed | Percent Control of Tomato Late Blight [8]: 96%

CCCCCCCCCO[C@@H]1O[C@H](CO)[C@@H](O)[C@H](O)[C@H]1O [n-nonyl-B-D-glucoside]
fungicidal activity against Tomato Late Blight [8]: fungicidal activity was observed | Percent Control of Tomato Late Blight [8]: 77%

C8-10 alkyl polyglycoside [AGNIQUE ® PG8107G]
Efficacy in % Found [9]: 0%

C12-C14 lauryl dimethyl betaine [GENAGEN ® KB]
Efficacy in % Found ([4]; rate 0.015%): 15% | Efficacy in % Found ([6]; rate 0.06%): 18% | Efficacy in % Found ([6]; rate 0.12%): 39%

alkyl polyethylene glycol ether phosphoric acid mono/diester [HORDAPHOS ® 1306]
Efficacy in % Found ([5]; rate 0.015%): 30% | Efficacy in % Found ([5]; rate 0.03%): 32% | Efficacy in % Found ([4]; rate 0.06%): 19% | Efficacy in % Found ([6]; rate 0.12%): 0% | Efficacy in % Found ([6]; rate 0.25%): 14% | Efficacy in % Found [10]: 0%

cocoamidopropyl betaine (C8-C18) [GENAGEN ® CAB 818]
Efficacy in % Found ([4]; rate 0.015%): 4% | Efficacy in % Found ([4]; rate 0.03%): 68% | Efficacy in % Found ([4]; rate 0.06%): 56% | Efficacy in % Found ([6]; rate 0.06%): 29% | Efficacy in % Found ([6]; rate 0.12%): 32%

octyl glucose neopentyl glycol
fungicidal activity against Tomato Late Blight [8]: fungicidal activity was observed

polyalkyleneoxide modified heptamethyltrisiloxane [SILWET ® L-77]
Efficacy in % Found [1]: 0% | Efficacy in % Found [2]: 0% | Efficacy in % Found [3]: 16% | Efficacy in % Found [11]: 0% | Efficacy in % Found [12]: 0%

sorbitan monolaurate [SPAN ® 20]
control of Pepper Grey Mould [13]: increasing control of the plant pathogen was observed as higher rates were applied | Percent Control of Tomato Late Blight [8]: 75% | control of Tomato Late Blight [14]: the highest level of control was observed at 1.0 and 2.0 weight %

sorbitan oleate [SPAN ® 80]
Percent Control of Tomato Late Blight [8]: 50%

sorbitan trioleate [SPAN ® 85]
Percent Control of Tomato Late Blight [8]: 0%

sucrose monodecanoate
Percent Control of Tomato Late Blight [8]: 25%
